Bridge positions count the residues as written; N and C are the ends. Peptide text beside a SMILES is read from it. * marks the point of attachment. FITC = O=C1OC2(c3ccc(O)cc3Oc3cc(O)ccc32)c2ccc(NC(=S)*)cc21; GABA = NCCCC(=O)O
How the values were obtained:
[1] = test system: H1299, DKMG and K562 cells; assay: Flow cytometry binding of peptide-FITC conjugates; format: cell-based; details: 2.5 μM FITC-labeled peptide
Excerpt: This concentration was chosen based on preliminary dose dependence study.

[2] = test system: EGFR+ve cells (H1299, DKMG) versus K562 cells; assay: Flow cytometry internalization of peptide-FITC conjugates; format: cell-based; details: 2.5 μM FITC-labeled peptide
Excerpt: Analysis was done with FACS cell analyzer.

[3] = test system: DKMG cells line expressing both EGFR+ve and EGFRvIII mutation; details: 2.5 μM FITC-labeled peptide
Method: (§1) Cells were cultured overnight in 6-well plates under 80-90% confluence, the medium was replaced with 1 ml of the fresh medium with 5% FBS that contained 2.5 μM FITC-conjugated peptides. The plates were incubated for 1, 2, or 3 h at 37° C. After incubation, the cells were collected with trypsin, washed twice with FCSB, and resuspended in 200 μl of FCSB. Analysis was done with FACS cell analyzer.

[4] = test system: high-EGFR-expressing MDA-435 cells; assay: Target specificity by flow cytometry, MDA-435; format: cell-based; details: FITC-labeled peptides
Method: (§2) Cells with 80-90% confluence were incubated with 2.5 μM FITC-conjugated peptides in RPMI-5% FBS for 1 h at 37° C. Cells were scrapped from the culture flask and washed twice with 2 ml FCSB. Cells were analyzed as previously described Internalization of peptide-FITC conjugates.
as §1
(§3) Targeting specificity of FITC-labeled P4-P6, P8, and P9 peptides was investigated on three cell lines, which were not used in biopanning: kidney HEK-293 and breast MCF-10A normal cells, and breast cancer MDA-435 cells. To verify EGFR WT expression on these cell lines, the inventors stained the cells with APC-labeled monoclonal anti-human EGFR antibody followed by a flow cytometry analysis.
(§4) The interaction of the FITC labeled P4 P6, P8, and P9 with these cell lines was analyzed by flow cytometry.

DKMG cells = assay: Confocal microscopy, DKMG; format: cell-based; details: 25 μM; for green FITC signal: after 3 hours; for fluorescence intensity: time zero
Method: (§5) H1299, DKMG and HEK-293 cells were seeded in 12-well glass bottom black plates in concentrations of 5.0×10^4, 1.0×10^5, and 2.5×10^4 cells/well, respectively. The cells were cultured in complete growth medium at 37° C. under 5% CO2 for 24 h. After incubation, the medium was removed, the cells were twice washed with PBS Ca^2+Mg^2+, and new fresh medium (0.5 ml) contained 25 μM of FITC labeled P6 or P9 peptides was added. The stained cells were incubated at 37° C. under 5% CO2 for 0 h and 3 h, washed twice with PBS, and stained with Hoechst 33258 ([…], 0.5 ml, 37° C., 5% CO2) for 10 min. The cells were twice washed with PBS and fixed with 4% paraformaldehyde (PFA). Fluorescence images were then recorded at the magnification of ×200 with a Zeiss LSM700 confocal laser microscope.
(§6) To get additional confirmation data on the specificity of the FITC labeled P6 and P9 peptides towards EGFR H1299 lung cancer and […] DKMG glioblastoma cell lines compared to EGFR−ve HEK-293 normal cells, the inventors employed confocal scanning microscopy. The cells were incubated with 25 μM FITC-labeled P6 and P9, the cell nuclear were stained with […], the cells were fixed with 4% paraformaldehyde, and captured immediately after addition and 3 h later. […] A clear correlation of the green FITC signal with the cell type was established.

MCF-10A cells = details: FITC-labeled peptides, flow cytometry
Method: as §2, §1, §3, §4

H1299 cells = assay: Confocal microscopy, H1299; format: cell-based; details: 25 μM
Method: as §5, §6

HEK-293 cells = assay: Confocal microscopy, HEK-293; format: cell-based; details: 25 μM, after 3 hours
Method: as §5, §6

Row | Compound | binding (flow cytometry) [1] | internalization (flow cytometry) [2] | internalization activity to DKMG [3] | internalization into MDA-435 cells [4] | green FITC signal (DKMG cells) | fluorescence intensity (DKMG cells) | binding to MDA-435 cells [4] | binding to MCF-10A cells (MCF-10A cells) | green FITC signal (H1299 cells; after 3 hours) | fluorescence intensity (H1299 cells; time zero) | green FITC signal (HEK-293 cells)
1 | CSCC[C@@H]1NC(=O)[C@H](C)NC(=O)[C@H](CC(N)=O)NC(=O)[C@H](C(C)C)NC(=O)[C@@H](NC(=O)CCCNC(=S)Nc2ccc3c(c2)C(=O)OC32c3ccc(O)cc3Oc3cc(O)ccc32)CSSC[C@@H](C(N)=O)NC(=O)[C@H](Cc2ccc(O)cc2)NC(=O)[C@H](CO)NC(=O)[C@H](CCC(N)=O)NC1=O [FITC-labeled P9] ({FITC-GABA}-CVNAMQSYC-NH2; disulfide 1-9) | bind to H1299 and DKMG selectively but not to K562 cells | internalized only into to EGFR+ve cells | higher internalization activity | pronounced internalization | significantly increased after 3 hours | pronounced emission | – | – | – | – | –
2 | CC(C)C[C@@H]1NC(=O)[C@H](C)NC(=O)[C@H](CO)NC(=O)[C@@H](NC(=O)CCCNC(=S)Nc2ccc3c(c2)C(=O)OC32c3ccc(O)cc3Oc3cc(O)ccc32)CSSC[C@@H](C(N)=O)NC(=O)[C@H](Cc2cnc[nH]2)NC(=O)[C@H](CO)NC(=O)[C@H](C)NC(=O)[C@H](Cc2c[nH]c3ccccc23)NC1=O [FITC-labeled P8] ({FITC-GABA}-CSALWASHC-NH2; disulfide 1-9) | bind to H1299 and DKMG selectively but not to K562 cells | internalized only into to EGFR+ve cells | – | – | – | – | noticeable binding | noticeable binding | – | – | –
3 | CC[C@H](C)[C@@H]1NC(=O)[C@H](Cc2ccc(O)cc2)NC(=O)[C@H](CO)NC(=O)CNC(=O)[C@@H]2CCCN2C(=O)[C@H](C(C)C)NC(=O)[C@H](Cc2cnc[nH]2)NC(=O)[C@@H](NC(=O)CCCNC(=S)Nc2ccc3c(c2)C(=O)OC32c3ccc(O)cc3Oc3cc(O)ccc32)CSSC[C@@H](C(N)=O)NC1=O [FITC-labeled P6] ({FITC-GABA}-CHVPGSYIC-NH2; disulfide 1-9) | – | internalized only into to EGFR+ve cells | – | pronounced internalization | strong signal | not detectable | – | – | strong signal | not detectable | low-intensive signal
